pEC50: −log10 of the molar value. Where two headings read alike, the source gives them in different places. Numbered stars: 1 amine (or outer) side, 2 acyl side, 3 side chain; on linkers, the order of the positions; unused ones are H or OH. Square brackets hold non-standard residues; d marks the D form. Side chains are listed from the residue outwards. Peptide text beside a SMILES is read from it. * marks the point of attachment. γGlu = O=C(O)[C@H](CCC(=O)[*:2])N[*:1]; Palmitoyl = CCCCCCCCCCCCCCCC(=O)*; αMeF = C[C@](N)(Cc1ccccc1)C(=O)O; αMeK = C[C@](N)(CCCCN)C(=O)O; αMeS = C[C@](N)(CO)C(=O)O; Aib = CC(C)(N)C(=O)O Some results are limits rather than exact numbers.

Holding throughout (type): cell-based
The target in experiment [1] is T1, human GLP-1 receptor (GLP-1R) (Homo sapiens, UniProt P43220).
T1 construct: expressed in transfected cells
In words: cAMP assay, human GLP-1R cells. As to conditions: for pEC50: cAMP assay; for EC50: mean of n1 and n2, read-out: Mean pM GLP-1R. The method in brief:
(§1)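 Peptide-stimulated cAMP measured by two-step HTRF after a 30 min room-temperature incubation with receptor-expressing cells (hGLP-1R, hGIPR at 1×10^5 cells/ml; hGCGR at 2×10^5 cells/ml). Duplicate dilutions; EC50 from 4-parameter logistic fit of % Delta F.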
Background: Cyclic AMP is a second messenger, typically raised through Gs and lowered through Gi signalling.

In experiment [2] the target is T2, GLP-1R (INS1e assay) (Rattus norvegicus, UniProt P32301).
T2 construct: endogenous in cells; host or cells: INS-1E cells
T2 sequence (P32301 22-463): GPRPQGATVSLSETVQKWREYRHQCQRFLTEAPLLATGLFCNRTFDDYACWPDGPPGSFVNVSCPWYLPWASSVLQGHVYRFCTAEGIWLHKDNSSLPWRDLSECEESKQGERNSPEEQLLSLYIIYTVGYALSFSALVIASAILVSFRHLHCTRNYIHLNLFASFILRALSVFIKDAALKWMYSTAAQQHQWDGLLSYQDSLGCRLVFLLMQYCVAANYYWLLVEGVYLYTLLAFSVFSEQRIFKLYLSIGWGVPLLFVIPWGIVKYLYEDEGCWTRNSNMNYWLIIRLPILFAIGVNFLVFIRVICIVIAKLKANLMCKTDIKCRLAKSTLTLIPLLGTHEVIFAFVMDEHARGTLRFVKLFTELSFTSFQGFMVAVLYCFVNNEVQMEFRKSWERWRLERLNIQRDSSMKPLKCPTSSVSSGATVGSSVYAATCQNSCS
In words: INS1e assay, cAMP activity at GLP-1R. The settings on record: mono-lipidated peptides; for EC50: mean of n1 and n2, read-out: INS1e assay EC50 Mean pM GLP-1R. The essentials:
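It pairs cAMP-d2 acceptor with anti-cAMP cryptate donor, both prepared 1/20 in conjugate/lysis buffer, applied as a two-step protocol.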

The target in experiment [3] is T3, human glucose-dependent insulinotropic peptide receptor (GIPR) (Homo sapiens, UniProt P48546).
T3 construct: expressed in transfected cells
T3 sequence (P48546 22-466): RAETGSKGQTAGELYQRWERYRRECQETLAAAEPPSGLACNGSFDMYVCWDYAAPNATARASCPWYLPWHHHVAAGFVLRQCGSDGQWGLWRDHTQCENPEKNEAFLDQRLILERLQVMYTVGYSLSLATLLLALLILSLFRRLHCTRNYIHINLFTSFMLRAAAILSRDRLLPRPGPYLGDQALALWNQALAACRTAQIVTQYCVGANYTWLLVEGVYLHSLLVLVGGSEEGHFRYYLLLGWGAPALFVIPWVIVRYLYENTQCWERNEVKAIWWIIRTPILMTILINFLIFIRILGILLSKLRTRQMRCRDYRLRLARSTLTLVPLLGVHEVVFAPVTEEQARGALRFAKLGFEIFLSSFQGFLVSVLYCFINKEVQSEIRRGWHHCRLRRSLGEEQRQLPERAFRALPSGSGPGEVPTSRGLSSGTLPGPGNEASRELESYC
Nature of the experiment: cAMP assay, human GIPR cells. As to conditions: cAMP assay. The essentials: as §1

Experiment [4] addresses T4, human glucagon receptor (GCGR) (Homo sapiens, UniProt P47871).
T4 construct: expressed in transfected cells
In words: cAMP assay, human GCGR cells. The settings on record: cAMP assay. The essentials:
as §1

[5] abbreviates: first determination (n1), read-out: Primary assay EC50 GLP-1R n1.
Where [6] appears, read: second determination (n2), read-out: Primary assay EC50 GLP-1R n2.
The mark [7] stands for this setting: replicate n1, read-out: INS1e assay EC50 GLP-1R n1.
The mark [8] stands for this setting: first determination (n1), read-out: Primary assay EC50 GIP-R (n1).
[9] abbreviates: second determination (n2), read-out: Primary assay EC50 GIP-R (n2).
Where [10] appears, read: first determination (n1), read-out: Primary assay EC50 Gluc-R (n1).
Where [11] appears, read: second determination (n2), read-out: Primary assay EC50 Gluc-R (n2).
Where [12] appears, read: replicate n2, read-out: INS1e assay EC50 GLP-1R n2.

T1 sequence (P43220 24-463): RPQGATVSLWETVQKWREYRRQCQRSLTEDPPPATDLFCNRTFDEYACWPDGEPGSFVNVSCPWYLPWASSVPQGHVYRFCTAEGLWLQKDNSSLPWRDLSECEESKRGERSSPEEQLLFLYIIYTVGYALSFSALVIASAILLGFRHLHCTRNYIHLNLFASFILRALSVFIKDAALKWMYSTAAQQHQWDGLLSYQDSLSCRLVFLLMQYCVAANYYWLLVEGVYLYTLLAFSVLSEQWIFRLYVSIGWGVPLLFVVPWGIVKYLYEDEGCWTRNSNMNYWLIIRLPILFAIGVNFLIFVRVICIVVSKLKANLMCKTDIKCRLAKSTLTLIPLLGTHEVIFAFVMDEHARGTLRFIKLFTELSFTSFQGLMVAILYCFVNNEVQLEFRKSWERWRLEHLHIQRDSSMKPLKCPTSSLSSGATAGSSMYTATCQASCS
T4 sequence (P47871 26-477): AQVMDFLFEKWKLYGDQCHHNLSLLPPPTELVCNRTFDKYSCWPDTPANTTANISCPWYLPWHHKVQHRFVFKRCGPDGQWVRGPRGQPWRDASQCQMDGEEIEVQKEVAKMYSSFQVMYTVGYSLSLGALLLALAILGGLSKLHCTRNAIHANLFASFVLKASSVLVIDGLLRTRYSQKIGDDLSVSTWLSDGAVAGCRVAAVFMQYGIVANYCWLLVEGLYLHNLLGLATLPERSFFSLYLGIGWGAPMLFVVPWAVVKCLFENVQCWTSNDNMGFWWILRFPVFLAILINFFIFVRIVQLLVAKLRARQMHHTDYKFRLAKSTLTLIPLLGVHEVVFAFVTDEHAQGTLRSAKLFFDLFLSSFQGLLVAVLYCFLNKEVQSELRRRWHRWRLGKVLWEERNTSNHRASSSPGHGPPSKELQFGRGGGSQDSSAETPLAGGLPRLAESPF

Usually pEC50 stands for the negative decadic logarithm of the EC50, by convention in mol/L. Consider `CCCCCCCCCCCCCCCCCC(=O)NCCOCCOCC(=O)NCCOCCOCC(=O)NCCOCCOCC(=O)NCCCC[C@H](NC(=O)[C@H](C)NC(=O)[C@H](C)NC(=O)[C@H](CCC(=O)O)NC(=O)CNC(=O)[C@H](CCC(=O)O)NC(=O)[C@H](CC(C)C)NC(=O)[C@](C)(Cc1ccccc1)NC(=O)[C@H](CO)NC(=O)[C@H](CO)NC(=O)[C@@H](NC(=O)[C@H](CC(=O)O)NC(=O)[C@H](CO)NC(=O)[C@@H](NC(=O)[C@](C)(Cc1ccccc1)NC(=O)[C@H](CO)NC(=O)CNC(=O)[C@H](CCC(=O)O)NC(=O)C(C)(C)NC(=O)[C@@H](N)Cc1c[nH]cn1)[C@@H](C)O)C(C)C)C(=O)N[C@@H](CCC(=O)O)C(=O)N[C@@](C)(Cc1ccccc1)C(=O)N[C@H](C(=O)N[C@@H](C)C(=O)N[C@@](C)(Cc1ccccc1)C(=O)N[C@H](C(=O)N[C@H](C(=O)N[C@@](C)(CCCCN)C(=O)NCC(=O)NCC(N)=O)C(C)C)C(C)C)[C@@H](C)CC` [compound 52], for which the negative-log EC50 (pEC50) in experiment [1] (setting [5]) is 11.82; in experiment [1] (setting [6]), 11.60; in experiment [2] (setting [7]), 10.67; in experiment [3] (setting [8]), at most 7.59; in experiment [3] (setting [9]), at most 7.59; in experiment [4] (setting [10]), at most 7.59. Also, the negative logarithm of the EC50 (pEC50) in experiment [4] (setting [11]) was at most 7.59. Also, the EC50 in experiment [1] was determined as 2 pM.
Consider `CC[C@H](C)[C@H](NC(=O)[C@](C)(Cc1ccccc1)NC(=O)[C@H](CCC(=O)O)NC(=O)[C@H](CCCCNC(=O)COCCOCCNC(=O)COCCOCCNC(=O)CC[C@H](NC(=O)CCCCCCCCCCCCCCCCC(=O)O)C(=O)O)NC(=O)[C@H](C)NC(=O)[C@H](C)NC(=O)[C@H](CCC(=O)O)NC(=O)CNC(=O)[C@H](CCC(=O)O)NC(=O)[C@H](CC(C)C)NC(=O)[C@](C)(Cc1ccccc1)NC(=O)[C@H](CO)NC(=O)[C@](C)(CO)NC(=O)[C@@H](NC(=O)[C@H](CC(=O)O)NC(=O)[C@H](CO)NC(=O)[C@@H](NC(=O)[C@H](Cc1ccccc1)NC(=O)[C@H](CO)NC(=O)CNC(=O)[C@H](CCC(=O)O)NC(=O)C(C)(C)NC(=O)[C@@H](N)Cc1c[nH]cn1)[C@@H](C)O)C(C)C)C(=O)N[C@@H](C)C(=O)N[C@@](C)(Cc1ccccc1)C(=O)N[C@H](C(=O)N[C@H](C(=O)N[C@@](C)(CCCCN)C(=O)NCC(=O)NCC(N)=O)C(C)C)C(C)C` [compound 45], for which the pEC50 is 8.42 in experiment [1] (setting [5]); 8.48 in experiment [1] (setting [6]); 7.12 in experiment [2] (setting [7]); 6.95 in experiment [2] (setting [12]); at most 7.59 in experiment [3] (setting [8]); at most 7.59 in experiment [3] (setting [9]). For the same compound, the pEC50 in experiment [4] (setting [10]) and in experiment [4] (setting [11]) was at most 7.59 throughout. Besides, the EC50 in experiment [1] stood at 3560 pM; in experiment [2], 94600 pM.
With `CCCCCCCCCCCCCCCC(=O)N[C@@H](CCC(=O)NCCCC[C@H](NC(=O)[C@](C)(Cc1ccccc1)NC(=O)[C@H](CO)NC(=O)[C@](C)(CO)NC(=O)[C@@H](NC(=O)[C@H](CC(=O)O)NC(=O)[C@H](CO)NC(=O)[C@@H](NC(=O)[C@](C)(Cc1ccccc1)NC(=O)[C@H](CO)NC(=O)CNC(=O)[C@H](CCC(=O)O)NC(=O)C(C)(C)NC(=O)[C@@H](N)Cc1c[nH]cn1)[C@@H](C)O)C(C)C)C(=O)N[C@@H](CCC(=O)O)C(=O)NCC(=O)N[C@@H](CCC(=O)O)C(=O)N[C@@H](C)C(=O)N[C@@H](C)C(=O)N[C@@](C)(CCCCN)C(=O)N[C@@H](CCC(=O)O)C(=O)N[C@@](C)(Cc1ccccc1)C(=O)N[C@H](C(=O)N[C@@H](C)C(=O)N[C@@](C)(Cc1ccccc1)C(=O)N[C@H](C(=O)N[C@H](C(=O)N[C@@](C)(CCCCN)C(=O)NCC(=O)NCC(N)=O)C(C)C)C(C)C)[C@@H](C)CC)C(=O)O` [compound 86] (H-H[Aib]EGS[αMeF]TSDV[αMeS]S[αMeF]K([γGlu-Palmitoyl])EGEAA[αMeK]E[αMeF]IA[αMeF]VV[αMeK]GG-NH2), the negative logarithm of the EC50 (pEC50) in experiment [1] (setting [5]) was 11.89; in experiment [1] (setting [6]), 11.77; in experiment [2] (setting [7]), 10.34; in experiment [2] (setting [12]), 10.07; in experiment [3] (setting [8]), at most 7.55; in experiment [3] (setting [9]), at most 7.55. For the same compound, the negative logarithm of the EC50 (pEC50) in experiment [4] (setting [10]) and in experiment [4] (setting [11]) was at most 7.55 throughout. For the same compound, the EC50 in experiment [1] was 1.5 pM; in experiment [2], 65 pM.
`CCCCCCCCCCCC(=O)NCCCCCC(=O)NCCCCCC(=O)NCCCC[C@H](NC(=O)[C@H](C)NC(=O)[C@H](C)NC(=O)[C@H](CCC(=O)O)NC(=O)CNC(=O)[C@H](CCC(=O)O)NC(=O)[C@H](CC(C)C)NC(=O)[C@](C)(Cc1ccccc1)NC(=O)[C@H](CO)NC(=O)[C@](C)(CO)NC(=O)[C@@H](NC(=O)[C@H](CC(=O)O)NC(=O)[C@H](CO)NC(=O)[C@@H](NC(=O)[C@](C)(Cc1ccccc1)NC(=O)[C@H](CO)NC(=O)CNC(=O)[C@H](CCC(=O)O)NC(=O)C(C)(C)NC(=O)[C@@H](N)Cc1c[nH]cn1)[C@@H](C)O)C(C)C)C(=O)N[C@@H](CCC(=O)O)C(=O)N[C@@](C)(Cc1ccccc1)C(=O)N[C@H](C(=O)N[C@@H](C)C(=O)N[C@@](C)(Cc1ccccc1)C(=O)N[C@H](C(=O)N[C@H](C(=O)N[C@@](C)(CCCCN)C(=O)NCC(=O)NCC(N)=O)C(C)C)C(C)C)[C@@H](C)CC` [compound 132]: the pEC50 is 10.96 in experiment [1] (setting [5]); 11.15 in experiment [1] (setting [6]); 9.89 in experiment [2] (setting [7]); 9.94 in experiment [2] (setting [12]); at most 7.55 in experiment [3] (setting [8]); at most 7.55 in experiment [3] (setting [9]). Also, the negative-log EC50 (pEC50) in experiment [4] (setting [10]) and in experiment [4] (setting [11]) was at most 7.55 in each case. For the same compound, the EC50 in experiment [1] was found to be 9 pM; in experiment [2], 122 pM.
As to `CCCCCCCCCCCCCCCC(=O)N[C@@H](CCC(=O)NCCCC[C@H](NC(=O)[C@H](C)NC(=O)[C@H](C)NC(=O)[C@H](CCC(=O)O)NC(=O)CNC(=O)[C@H](CCC(=O)O)NC(=O)[C@H](CC(C)C)NC(=O)[C@](C)(Cc1ccccc1)NC(=O)[C@H](CO)NC(=O)[C@](C)(CO)NC(=O)[C@@H](NC(=O)[C@H](CC(=O)O)NC(=O)[C@H](CO)NC(=O)[C@@H](NC(=O)[C@](C)(Cc1ccccc1)NC(=O)[C@H](CO)NC(=O)CNC(=O)[C@H](CCC(=O)O)NC(=O)C(C)(C)NC(=O)[C@@H](N)Cc1c[nH]cn1)[C@@H](C)O)C(C)C)C(=O)N[C@@H](CCC(=O)O)C(=O)N[C@@](C)(Cc1ccccc1)C(=O)N[C@H](C(=O)N[C@@H](C)C(=O)N[C@@](C)(Cc1ccccc1)C(=O)N[C@H](C(=O)N[C@H](C(=O)N[C@@](C)(CCCCN)C(=O)NCC(=O)NCC(N)=O)C(C)C)C(C)C)[C@@H](C)CC)C(=O)O` [compound 80], the negative logarithm of the EC50 (pEC50) in experiment [1] (setting [5]) is 10.51; in experiment [1] (setting [6]) it was 10.77; in experiment [2] (setting [7]), 8.41; in experiment [2] (setting [12]), 8.88; in experiment [3] (setting [8]), at most 7.55; in experiment [3] (setting [9]), at most 7.55. The pEC50 in experiment [4] (setting [10]) and in experiment [4] (setting [11]) was at most 7.55 each time. The EC50 in experiment [1] worked out at 24 pM; in experiment [2], 2610 pM.

The values are drawn from US10414811B2, “Protease-resistant lipidated GLP-1 analogs” (MEDIMMUNE LIMITED, priority 2015, dated 2019).
